Data from US6365616B1, “Methimazole derivatives and tautomeric cyclic thiones to treat autoimmune diseases” (Sentron Medical, Inc., priority 1998, dated 2002).
Read-outs that look alike come from different tables or passages of the source.

Columns and labels:
Type in all cases: cell-based, rat
[1] = test system: silencer complex with Fragment 140 (upstream silencer/enhancer) of the MHC Class I PD1 5′-flanking region; test: Gel shift (EMSA) with upstream 140 class I probe, extracts from treated FRTL-5 cells; conditions: 5H cells treated 48 hours
Procedure: FRTL-5 rat thyroid cells (Kohn, L. D., et al., U.S. Pat. No. 4,609,622 (1986); Ambesi-Impiombato E S., U.S. Pat. No. 4,608,341 (1986)) are grown as described below. […] Their doubling time was approximately 36±6 hours; and, after 6 days in medium with no TSH (5H) and 5.0% serum, […] TSH elevated iodide uptake 8-10 fold and thymidine incorporation>10 fold. Cells were diploid, between their 5th and 25th passage in most experiments, and were routinely grown in Coon's modified F12 medium supplemented with 5 % calf serum, 1 mmol/L nonessential amino acids (GIBCO) and a mixture of 6 hormones (6H medium): TSH (1×10^−10 M), insulin (10 μg/ml), hydrocortisone 0.4 ng/ml, human transferrin (5 μg/ml), somatostatin ([…]) and glycyl-L-histidyl-L-lysine acetate (10 ng/ml) (Kohn, L. D. et al., U.S. Pat. No. 4,609,622 (1986); Ambesi-Impiombato, E. S., U.S. Pat. No. 4,608,341 (1986)). They were passaged every 7-10 days and provided fresh media every 2 or 3 days. In individual experiments, cells were grown to near confluency in 6H medium then, in some experiments, were shifted to medium with no TSH (5H), to medium with neither TSH and or insulin (4H), or to medium with no TSH, no insulin and no hydrocortisone (3H) plus either 5% or 0.2% serum for 4-7 days before use.
Cells were grown in 6H medium with 5 % calf serum for 6-7 days to 70-80% confluence, then shifted to 5H medium with 5 % calf serum for 5 days. TSH (1×10^−10 M), gamma-interferon (100 U/ml), MMI (5 mM), and different concentrations of MMI derivatives or tautomeric cyclic thiones (0.0001 to 10 mM) were added as appropriate for […]. Cells were then harvested and extracts were made by a modification of a method of Dignam, J., et al. Methods in Enzymology, 101:582-598 (1983). In brief, cells were harvested by scraping after being washed twice with cold phosphate-buffer saline (PBS). Subsequently they were pelleted, washed in cold PBS and then pelleted again. The pellet was resuspended in Dignam buffer C (20 mM Hepes buffer at pH 7.9, 1.5 mM MgCl2, 0.42 M NaCl, 25% glycerol, 0.5 mM dithiotreitol (DTT), 0.5 mM phenylmethylsulfonylfluoride (PMSF), 1 […] pepstatin). The final NaCl concentration was adjusted on the basis of cell pellet volume to 0.42 M and cells were lysed by repeated cycles of freezing and thawing. Extracts were then centrifuged at 10,000×g at 4° C. for 20 min. The supernatant was recovered, aliquoted and stored at −70° C.
Binding reactions were performed in a volume of 20 μl for 30 min at room temperature. The typical reaction mixture contained 1.5 fmol of ^32P DNA, 3 μg of cell extracts, 1 to 3 μg of poly (dI-dC) in 10 mM Tris-Cl (pH 7.9), 1 mM MgCl2, 1 mM DTT, 1 mM ethylenediamine tetra acetic acid (EDTA), and 5 % glycerol. After incubation, reaction mixtures were subjected to electrophoresis in 4% polyacrylamide gels for 90-120 min at 160 V in 0.5× TBE (Sambrook, J., et al., Molecular Cloning: A Laboratory Manual, 2nd ed. Cold Spring Harbor Press, NY, 2: 11.23-11.44 (1989)), then dried and autoradiographed. Probes were labeled with [α32P] deoxy CTP by Klenow enzyme (In Vitro labeling kit, Amersham) following the manufacturer's instructions, or by [γ^32P] ATP using T4 polynucleotide kinase. Labeled probes were then purified either through G-50 columns (5 prime→3 Prime) or on an 8% polyacrylamide gel.
The effect of the addition of 5 mM MMI to cells for 48 hours prior to extract preparation from cells maintained in SH medium is shown in lane 1 of FIG. 2. The effect of the addition of 1 mM concentration of representative MMI derivatives to cells maintained in 5H medium for 48 hours prior to extract preparation is shown in lanes 3 to 8 in FIG. 2. The structures and names of the representative numbered compounds are in Table 1. The MMI or its derivatives decrease the silencer complex. The decrease can be quantitated by densitometry of autoradiograms or phosphoimaging on a Bas 1500 imager (for example). […]

[2] = test system: MHC class II antigen expression; test: Flow cytometry of IFN-increased class II antigen expression in FRTL-5 cells; conditions: for Concentration to inhibit IFN-increased antigen expression, Class II: 100 U/ml γ-interferon, 6H medium (TSH), 40 hours
Procedure: […] 13 and 14. Cells were stained with a fluorescein isothiocyanate conjugated class II-specific monoclonal antibody to RT1.B (clone OX-6, Sera Labs, UK) for 60 min at 4° C., washed twice with Dulbecco's phosphate buffered saline, and subjected to laser flow cytometry.
In this experiment 10^6 cells were incubated with MHC class II or MHC class I-specific antibodies as described (Montani, V., et al., ibid (1998b); Saji, M., et al., ibid (1992a); Balducci-Silano, P. L., et al., Endocrinology 139:2309-2313 (1998)). After 30 min on ice, cells were washed with phosphate buffered saline at pH 7.4 and incubated for 30 min with fluorescein-isothiocyanate (FITC)-conjugated antibodies then analyzed by flow cytometry on a FACScan Cytometer using CellQuest software (Becton Dickinson).
The concentration needed to achieve suppression of the interferon induced class I or class II surface expression was determined by testing different concentrations of the compounds (Table 18). Like all other assays, the order of effectiveness was compound 10>11>7 or 8>2>MMI>3.

MHC class I RNA = test: Northern analysis of MHC class I RNA levels in FRTL-5 cells; conditions: for inhibition at 100 µM / inhibition at 1000 µM / inhibition at 5000 µM: Rattus norvegicus
[3] = FRTL-5, 100 μM, 100 U/ml γ-interferon, 6H medium (TSH), 40 hours, read-out: % inhibition of class I RNA expression (γ-interferon-treated)
[4] = FRTL-5, 100 μM, basal, 5H medium, 40 hours, read-out: % inhibition of class I RNA expression (basal)
[5] = FRTL-5, 1 mM, 100 U/ml γ-interferon, 6H medium (TSH), 40 hours, read-out: % inhibition of class I RNA expression (γ-interferon-treated)
[6] = FRTL-5, 1 mM, basal, 5H medium, 40 hours, read-out: % inhibition of class I RNA expression (basal)
[7] = 100 μM, 100 U/ml γ-interferon, 6H medium (TSH), 40 hours
[8] = 100 μM, basal, 5H medium, 40 hours
[9] = FRTL-5, 5 mM, 100 U/ml γ-interferon, 6H medium (TSH), 40 hours, read-out: % inhibition of class I RNA expression (γ-interferon-treated)
[10] = 1 mM, 100 U/ml γ-interferon, 6H medium (TSH), 40 hours
[11] = 1 mM, basal, 5H medium, 40 hours
[12] = 5 mM, 100 U/ml γ-interferon, 6H medium (TSH), 40 hours
[13] = FRTL-5, 5 mM, basal, 5H medium, 40 hours, read-out: % inhibition of class I RNA expression (basal)

SMILES	% inhibition of control silencer complex formation ([1]; 10 μM) [%]	% inhibition of control silencer complex formation ([1]; 100 μM) [%]	% inhibition of control silencer complex formation ([1]; 1 mM) [%]	Concentration to inhibit IFN-increased antigen expression, Class II [2]	inhibition at 100 µM (MHC class I RNA; [3]) [%]	inhibition at 100 µM (MHC class I RNA; [4]) [%]	inhibition at 1000 µM (MHC class I RNA; [5]) [%]	inhibition at 1000 µM (MHC class I RNA; [6]) [%]	% inhibition of control silencer complex formation ([1]; 5 mM)	% inhibition of class I RNA expression (γ-interferon-treated) (MHC class I RNA; [7])	% inhibition of class I RNA expression (basal) (MHC class I RNA; [8])	inhibition at 1000 µM (MHC class I RNA; FRTL-5, 40 h, read-out: % inhibition of class I RNA expression (basal)) [%]	inhibition at 1000 µM (MHC class I RNA; FRTL-5, 40 h, read-out: % inhibition of class I RNA expression (γ-interferon-treated)) [%]	inhibition at 5000 µM (MHC class I RNA; [9]) [%]	% inhibition of class I RNA expression (γ-interferon-treated) (MHC class I RNA; [10])	% inhibition of class I RNA expression (basal) (MHC class I RNA; [11])	% inhibition of class I RNA expression (γ-interferon-treated) (MHC class I RNA; [12])	% inhibition of class I RNA expression (basal) (MHC class I RNA; 5 mM, basal, 5H medium, 40 hours)	endogenous class II antigen expression on the cell surface (flow cytometry, FIG. 12) ([2]; 5 mM MMI with 100 U/ml γ-IFN, 48 hours)	inhibition at 5000 µM (MHC class I RNA; [13]) [%]
Cn1c(-c2ccccc2)cnc1S [Compound 10, 5-Phenylmethimazole]	25	60 ± 10	85 ± 15	54 ± 11 µM	42 ± 14	60 ± 8	60 ± 12	85 ± 16												
Sc1nc2ccccc2[nH]1 [Compound 4, 2-Mercaptobenzimidazole]	0	5	75 ± 10						Insol	None	None	34 ± 13	37 ± 10							
CSc1nccn1C [Compound 7, S-Methylmethimazole]	0	10 ± 13	50 ± 9	405 ± 15 µM	14 ± 11	10 ± 8	40 ± 15	46 ± 9						69 ± 6						
O=[N+]([O-])c1ccc2[nH]c(S)nc2c1 [Compound 5, 2-Mercapto-5-nitrobenzimidazole]	0	0	0				19 ± 7	32 ± 11	Insol	None	None									
Cn1ccn(C)c1=S [Compound 8, N-Methylmethimazole]	0	18 ± 18	70 ± 14	439 ± 93 µM						9 ± 7%	14 ± 12%				49 ± 13%	60 ± 6%	73 ± 12%			
Sc1ncc[nH]1 [Compound 3, 2-Mercaptoimidazole]	0	0	0	No Inhibition					0%						None	None	None	None		
Cn1ccnc1S [Compound 1, 1-Methylimidazole-2-thiol]	0	0	20 ± 15	5000 µM			29 ± 7	25 ± 10	75 ± 12%	None	None			52 ± 15					decreased endogenous class II antigen expression	42 ± 8
Cc1cnc(S)n1C [Compound 9, 5-Methylmethimazole]	0	0	15 ± 15				9 ± 5	15 ± 14	30 ± 20%	None	None			24 ± 6						30 ± 5
Cc1ncc([N+](=O)[O-])n1CCO [Compound 2, 2-Methyl-5-nitro-1-imidazole ethanol]	0	0	45 ± 19	1500 ± 1000 µM			42 ± 5	49 ± 6	86 ± 15%	None	None			68 ± 13						63 ± 14
Cc1ccc2[nH]c(S)nc2c1 [Compound 6, 2-Mercapto-5-methylbenzimidazole]	0	0	20 ± 18				22 ± 16	23 ± 15	Insol	None	None			23 ± 11						
